Cc1cc(=O)[nH]c(=S)[nH]1
solubility (mole fraction)
Conditions | 278.15 K | 283.15 K | 288.15 K | 293.15 K | 298.15 K | 303.15 K | 308.15 K | 313.15 K | 318.15 K | 323.15 K
in DMF | 0.0117 | 0.0144 | 0.0174 | 0.0207 | 0.0252 | 0.0294 | 0.0346 | 0.0396 | 0.0463 | 0.0538
in DMSO | – | – | – | 0.0379 | 0.0432 | 0.0491 | 0.0549 | 0.0619 | 0.0692 | 0.0773
in NMP | 0.013 | 0.0155 | 0.0181 | 0.0212 | 0.0246 | 0.0288 | 0.0334 | 0.0391 | 0.0454 | 0.051
in water | 2.53e-05 | 3.23e-05 | 4.15e-05 | 5.26e-05 | 6.68e-05 | 8.48e-05 | 0.000106 | 0.000129 | 0.000156 | 0.000187

— BigSolDB 2.1
